Measured values as given in US11471458B2, “Diacylglycerol acyl transferase 2 inhibitor” (Pfizer Inc., priority 2019, dated 2022).
Values after ≈ are worked out from the molar mass of the structure shown. Structures can show the parent of a compound that is named as a salt. Each block holds one compound with its values, some of them ahead of it.

Tests used:
human DGAT2 (hDGAT2) = human DGAT2 (hDGAT2) (Homo sapiens (Human), UniProt Q96PD7); test: In vitro DGAT2 assay, determination of IC50 values for DGAT2 inhibitors; type: biochemical; conditions: hDGAT2 membrane fraction; geometric mean
Chain of human DGAT2 (hDGAT2) (Q96PD7 whole entry): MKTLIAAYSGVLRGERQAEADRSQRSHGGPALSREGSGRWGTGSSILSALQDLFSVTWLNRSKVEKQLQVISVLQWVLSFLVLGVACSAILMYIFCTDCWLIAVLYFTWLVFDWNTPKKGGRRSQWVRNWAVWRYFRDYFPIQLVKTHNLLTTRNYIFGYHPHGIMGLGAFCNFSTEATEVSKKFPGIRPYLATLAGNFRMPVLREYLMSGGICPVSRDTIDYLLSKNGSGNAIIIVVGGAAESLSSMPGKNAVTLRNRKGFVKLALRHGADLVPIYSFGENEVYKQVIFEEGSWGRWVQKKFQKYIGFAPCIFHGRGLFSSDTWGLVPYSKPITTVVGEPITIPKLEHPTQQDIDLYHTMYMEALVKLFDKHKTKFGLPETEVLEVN
Procedure: Recombinant baculovirus for the FLAG-tagged hDGAT2 was generated in SF9 insect cells using Bac-to-Bac baculovirus expression system (Invitrogen) according to the manufacturer's protocol. For the expression of hDGAT2, SF9 cells (20 L) grown in Sf900II media were infected with hDGAT2 baculovirus at a multiplicity of infection of 1 in a Wave Bioreactor System 20/50P wave bag (GE Healthcare). After 40 hours of infection, the cells were then harvested by centrifugation at 5,000×g. The cell pellets were washed by resuspending in phosphate buffered saline (PBS) and collected by centrifugation at 5,000×g. The cell paste was flash frozen in liquid N2 and stored at −80° C. until needed. All operations below were at 4° C. unless otherwise noted. The cells were resuspended in lysis buffer (50 mM Tris-HCl, pH 8.0, 250 mM sucrose) including 1 mM ethylenediaminetetraacetic acid (EDTA) and the complete protease inhibitor cocktail (Roche Diagnostics) at a ratio of 3 mL buffer per 1 g cell paste. The cells were lysed by dounce homogenizer. The cell debris was removed by centrifugation at 1,000×g for 20 min, and the supernatant was centrifuged at 100,000×g for 1 hour. The resulting pellet was rinsed three times by filling ultracentrifuge tubes to the top with ice cold PBS before decanting. The washed pellet was resuspended with gentle stirring for 1 hour in lysis buffer containing 8 mM 3-[(3-cholamidopropyl)dimethylammonio]-1-propanesulfonate (CHAPS) at a ratio of 1 mL buffer per 1 g of original cell paste and centrifuged again at 100,000×g for 1 hour. The resulting supernatant was aliquotted, flash frozen in liquid N2, and stored at −80° C. until use.
To 1 μL of compounds dissolved in 100% DMSO and spotted at the bottom of each well, 5 μL of 0.04% bovine serum albumin (BSA) (fatty acid free, Sigma Aldrich) was added and the mixture was incubated at room temperature for 15 minutes. hDGAT2 membrane fractions were diluted in 100 mM Hepes-NaOH, pH 7.4, 20 mM MgCl2 containing 200 nM methyl arachidonyl fluorophosphonate (Cayman Chemical; dried from ethyl acetate stock solution under argon gas and dissolved in DMSO as 5 mM stock). 10 μL of this enzyme working solution was added to the plates and incubation continued for 2 hours at room temperature. […] Plates were centrifuged at 2,000×g for 1 minute in an Allegra 6R Centrifuge (Beckman Coulter) and then were sealed again with fresh covers before reading in a 1450 Microbeta Wallac Trilux Scintillation Counter (Perkin Elmer). DGAT2 activity was measured by quantifying the generated product [^14C]tridecanoylglycerol in the upper organic phase. […]

[1] = High throughput determination of intrinsic clearance in human hepatocytes; type: in vitro ADME; conditions: human, pooled cryopreserved human hepatocytes (10 donors), high throughput human hepatocyte assay; 0.5 million cells/mL, 1 μM test compound, 37° C.; mean +/− Std Dev; read-out: CLint (μL/min/10^6 cells) (+/− Std Dev)
Procedure: The incubation was carried out at 37° C. […] The samples were centrifuged (Eppendorf, Hauppauge, N.Y.) at 3000 rpm for 5 min at 4° C.

[2] = Intrinsic clearance in human liver microsomes; type: in vitro ADME; conditions: human, pooled human liver microsomes (50 donors), pH 7.4, human liver microsome assay; 1 μM test compound, 0.806 mg/mL protein, NADPH, pH 7.4, 37° C.; mean +/− STD Dev; read-out: CLint (μL/min/mg) (+/− STD Dev)
Procedure: The incubations were conducted at 37° C. […] (Sorvall RC 3C Plus, Thermo Scientific, Waltham, Mass.).

[3] = Thermodynamic solubility in various biorelevant media; type: physicochemical; conditions: crystalline solid; for solubility at 25 h: 25 °C, thermodynamic from solid
Procedure: The solubility of active pharmaceutical ingredients is an important characteristic in determining biological performance and ease of formulation during drug development, with high solubility being preferred (Klein, S. 2010, The AAPS Journal, 12, 397-406; Di, L., et al 2012, Drug Disc. Today, 17. 486-495). A test sample of crystalline solid (˜7 mg) was combined in a vial with 1 mL of the relevant buffer solution and the mixture vortexed to combine. If the solid dissolved completely, additional solid was added with vortexing until a saturated solution was obtained. The saturated solution/solid mixture was capped and subjected to temperature cycling as follows: 1 min at 25° C., 8 h at 40° C., 5 h at 15° C. and 12 h at 25° C. The mixture was filtered in a centrifugal filtration device (0.22 μm PVDF filter, MilliporeSigma, Milwaukee, Wis.) at 13,000 rpm and the concentration of the test compound in the filtrate was determined by HPLC/UPLC with reference to a three point standard curve. Phosphate buffered saline (PBS, pH 6.8, 50 mM phosphate buffer, 250 mM NaCl). Simulated gastric fluid (SGN pH 1.2, USP recipe). Fasted state simulated intestinal fluid (FaSSIF, 3 mM sodium taurocholate, 0.75 mM phospholipid from soybean lecithin, 50 mM phosphate buffer, ionic strength adjusted to 250 mM with NaCl, pH 6.8) and fed state simulated intestinal fluid (FeSSIF, 15 mM sodium taurocholate, 3.75 mM phospholipid from soybean lecithin, 144 mM acetic acid, 50 mM phosphate buffer, ionic strength adjusted to 250 mM with NaCl, pH 6.8).

[4] = Determination of pKa (capillary electrophoresis, Analiza, Inc.); type: physicochemical; conditions: mean, read-out: Basic pKa (most basic pKa)
[5] = Intrinsic clearance in human hepatocytes (relay method); type: in vitro ADME; conditions: human, cryopreserved human hepatocytes (suspension, relay method), 20 h total incubation, mean +/− standard deviation, read-out: CLint (+/− Std Dev), relay hepatocyte assay
Procedure: For intrinsic clearance (CLint) measurement, hepatocyte relay method was used (Di, L., et al. 2012, Drug Metab. Dispos., 40, 1860-1865 and Di, L., et al. 2013, Drug Metab. Dispos., 41, 2018-2023). Cryopreserved human hepatocytes (Lot DCM from BioreclamationlVT) were used. Upon thawing, the hepatocytes were resuspended in Williams' medium E (custom formula number 91-5233EA; Gibco, Grand Island, N.Y.) supplemented with Hepes and Na2CO3. […] The plates were incubated at 37° C. with 95% air/5% CO2, 75% relative humidity for 4 h at 150 rpm in a humidified incubator. At time 0 and 4 h, 25 μL of hepatocyte suspension was removed from the incubation and added to 50 μL of ice-cold acetonitrile (containing metoprolol, indomethacin, and terfenadine as internal standards) to quench the reaction. The samples were centrifuged (Eppendorf, Hauppauge, N.Y.) at 3000 rpm (1439×g) for 10 min at room temperature, and 50 μL of supernatant was transferred to a clean plate, dried completely, and reconstituted before liquid chromatography/tandem mass spectrometry (LC-MS/MS) analysis. The remaining hepatocyte suspensions in the incubation plate were centrifuged (3000 rpm, 1439×g, 10 min, room temperature). The supernatant of 300 μL was transferred to a clean 24-well plate and stored at −80° C. until the next relay experiment. For the second relay experiment, the supernatant plates were warmed first to room temperature for 30 minutes, then to 37° C. for 30 min, and hepatocytes were added to the samples to give a final cell density of 0.5 million cells/mL. The plates were incubated at 37° C. for 4 h, sampled, and processed as described above. Five relays were performed to give a total incubation time of 20 h, with sampling points at (0, 4, 8, 12, 16 and 20 h). The concentrations of test compound determined at each time point by the LC-MS/MS analysis were used to calculate the intrinsic clearance.

Structure (SMILES): CCOc1cc(F)cnc1Oc1cncc(-c2ncc(C(=O)N[C@@H]3CNCC[C@@H]3F)cn2)c1 [Example 1, 2-{5-[(3-Ethoxy-5-fluoropyridin-2-yl)oxy]pyridin-3-yl}-N-[(3R,4S)-4-fluoropiperidin-3-yl]pyrimidine-5-carboxamide, bis(trifluoroacetate) Salt]
pKa [4]: 7.7
hepatocyte CLint at 1 μM [1]: < 2.7 µL/min/1e6 cells
microsomal CLint at 1 μM [2]: < 7 µL/min/mg

Structure (SMILES): CCOc1cccnc1Oc1cncc(-c2ncc(C(=O)NC3(CO)CCOC3)cn2)c1 (single isomer, unassigned) [WO2018033832 Ex. 6a]
pKa [4]: 2.3
hepatocyte CLint at 1 μM [1]: < 3.8 µL/min/1e6 cells
microsomal CLint at 1 μM [2]: 13 µL/min/mg
hepatocyte CLint at 1 μM [5]: 3.2 µL/min/1e6 cells

Structure (SMILES): CCOc1cccnc1Oc1cncc(-c2ncc(C(=O)N[C@H]3CCC(C(F)(F)F)NC3)cn2)c1 (mixture of isomers) [Example 8, rac-2-{5-[(3-ethoxypyridin-2-yl)oxy]pyridin-3-yl}-N-[(3R,6S)-6-(trifluoromethyl)piperidin-3-yl]pyrimidine-5-carboxamide or rac-2-{5-[(3-ethoxypyridin-2-yl)oxy]pyridin-3-yl}-N-[(3R,6R)-6-(trifluoromethyl)piperidin-3-yl]pyrimidine-5-carboxamide]
hepatocyte CLint at 1 μM [1]: 12 µL/min/1e6 cells
microsomal CLint at 1 μM [2]: < 14 µL/min/mg

Structure (SMILES): CCOc1cccnc1Oc1cncc(-c2ncc(C(=O)NC3(C)CCS(=O)(=O)C3)cn2)c1 (stereo not shown) [WO2018033832 Ex. 3.1]
IC50 (human DGAT2 (hDGAT2)): 13 nM
hepatocyte CLint at 1 μM [1]: 9.3 µL/min/1e6 cells
microsomal CLint at 1 μM [2]: 30 µL/min/mg

Structure (SMILES): CCOc1cccnc1Oc1cncc(-c2ncc(C(=O)NC3CCS(=O)(=O)C3)cn2)c1 (stereo not shown) [WO2018033832 Ex. 3.3]
IC50 (human DGAT2 (hDGAT2)): 200 nM
hepatocyte CLint at 1 μM [1]: 5.1 µL/min/1e6 cells
microsomal CLint at 1 μM [2]: < 8 µL/min/mg

Now from value to compound:

IC50 (human DGAT2 (hDGAT2)): 3.3 nM
hepatocyte CLint at 1 μM [1]: 9.3 µL/min/1e6 cells
microsomal CLint at 1 μM [2]: < 9.6 µL/min/mg
Structure (SMILES): CCOc1cc(F)cnc1Oc1cncc(-c2ncc(C(=O)N[C@H]3CCOC3)cn2)c1 [WO2018033832 Ex. 8]

Solubility ([3]; SGN pH 1.2 (simulated gastric fluid)): 78 µg/mL (≈ 191 µM)
solubility at 25 h ([3]; fasted state simulated intestinal fluid (FaSSIF), pH 6.8, fassif, FaSSIF pH 6.8): 69 µg/mL (≈ 169 µM)
solubility at 25 h ([3]; phosphate buffered saline, pH 6.8, aqueous buffer, PBS, pH 6.8): 43 µg/mL (≈ 106 µM)
Structure (SMILES): CCOc1cccnc1Oc1cncc(-c2ncc(C(=O)N[C@H]3CCOC3)cn2)c1 [WO2018033832 Ex. 1, Form 1]

Solubility ([3]; FaSSIF pH 6.8): 93 µg/mL (≈ 228 µM)
Solubility ([3]; PBS, pH 6.8): 60 µg/mL (≈ 147 µM)
Structure (SMILES): CCOc1cccnc1Oc1cncc(-c2ncc(C(=O)N[C@H]3CCOC3)cn2)c1 [WO2018033832 Ex. 1, Form 2]

pKa [4]: 2.5
hepatocyte CLint at 1 μM [1]: 4.7 µL/min/1e6 cells
microsomal CLint at 1 μM [2]: 17 µL/min/mg
hepatocyte CLint at 1 μM [5]: 4.9 µL/min/1e6 cells
Structure (SMILES): CCOc1cccnc1Oc1cncc(-c2ncc(C(=O)N[C@@H]3CCOC3)cn2)c1 [WO2018033832 Ex. 2]

pKa [4]: 2.4
hepatocyte CLint at 1 μM [1]: < 3.8 µL/min/1e6 cells
microsomal CLint at 1 μM [2]: 11 µL/min/mg
hepatocyte CLint at 1 μM [5]: 3.9 µL/min/1e6 cells
Structure (SMILES): CCOc1cccnc1Oc1cncc(-c2ncc(C(=O)N[C@H]3CCOC3)cn2)c1 [WO2018033832 Ex. 1]
